According to paper PMC11645267, “Novel pharmacologic inhibition of lysine-specific demethylase 1 as a potential therapeutic for glioblastoma” (Cancer Gene Therapy, 2024):

Assays:
GSC316 = test: Cell proliferation assay (CellTiter-Glo 3D); type: cell-based; details: GSC316, 96 h; read-out: Growth inhibitory IC50 (GI50)
Protocol: (§1) Supplementary materials and methods […]
(§2) Cell lines and culture conditions […]
(§3) 2013 #1009}{Katsushima, 2016 #1156}. GSC cells were cultured in Neurobasal Medium (Life Technologies, Carlsbad, CA, USA) containing N2 and B27 supplements (Life Technologies) along with human recombinant basic fibroblast growth factor and epidermal growth factor (20 ng/ml each; R&D Systems, Minneapolis, MN, USA). Cells were cultured at 37°C in a humidified incubator with 5% CO2.
(§4) For the cell proliferation assay, cells at a density of 1 × 10^5 cells per well were seeded before treatment with LSD1 inhibitors. Cell proliferation was measured after 4 days using a Cell Counting Kit 8 (Dojindo, Kumamoto, Japan) according to the manufacturer ’s […]
(§5) instructions. For GSC cells, the CellTiter-Glo 3D Viability Assay (Promega, Madison, WI, USA) was used to measure the living cells. […]

GSC222 = test: Cell proliferation assay (CellTiter-Glo 3D); type: cell-based; details: GSC222, 96 h; read-out: Growth inhibitory IC50 (GI50)
Protocol: as §1, §2, §3, §4, §5

GSC1228 = test: Cell proliferation assay (CellTiter-Glo 3D); type: cell-based; details: GSC1228, 96 h; read-out: Growth inhibitory IC50 (GI50)
Protocol: as §1, §2, §3, §4, §5

LSD2 = molecular target: T1, LSD2 (Homo sapiens, UniProt Q8NB78); design: method as in PMID 32166890; details: cited from earlier work
T1 sequence (Q8NB78 1-822): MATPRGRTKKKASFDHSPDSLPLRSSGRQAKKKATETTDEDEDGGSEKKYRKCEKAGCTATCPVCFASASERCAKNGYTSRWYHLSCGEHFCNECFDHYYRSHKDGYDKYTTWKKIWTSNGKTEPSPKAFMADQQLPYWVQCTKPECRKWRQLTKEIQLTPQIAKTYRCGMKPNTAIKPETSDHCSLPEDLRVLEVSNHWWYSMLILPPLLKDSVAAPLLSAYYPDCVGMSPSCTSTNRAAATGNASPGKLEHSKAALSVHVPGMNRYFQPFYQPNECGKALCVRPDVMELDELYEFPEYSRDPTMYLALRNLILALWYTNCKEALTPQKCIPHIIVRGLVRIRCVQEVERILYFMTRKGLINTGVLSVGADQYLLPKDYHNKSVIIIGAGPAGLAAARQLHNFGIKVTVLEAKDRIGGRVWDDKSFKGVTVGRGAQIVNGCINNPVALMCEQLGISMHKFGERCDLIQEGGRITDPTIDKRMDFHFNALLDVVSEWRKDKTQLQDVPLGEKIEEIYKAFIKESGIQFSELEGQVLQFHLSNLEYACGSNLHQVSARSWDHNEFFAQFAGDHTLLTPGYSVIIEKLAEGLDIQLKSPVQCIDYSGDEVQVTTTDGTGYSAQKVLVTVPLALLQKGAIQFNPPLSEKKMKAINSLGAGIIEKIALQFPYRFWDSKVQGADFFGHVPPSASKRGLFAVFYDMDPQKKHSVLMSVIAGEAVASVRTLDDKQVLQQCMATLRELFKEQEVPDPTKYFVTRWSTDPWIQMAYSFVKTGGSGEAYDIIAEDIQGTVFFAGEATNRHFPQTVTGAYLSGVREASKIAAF

TIG3 = test: Cell proliferation assay (Cell Counting Kit 8); type: cell-based; details: Homo sapiens, TIG-3, 96 h; TIG3 (normal fibroblast), 4 days; read-out: Growth inhibitory IC50 (GI50)
Text: as §1
(§6) Cell lines and culture conditions
(§7) Glioblastoma cell line, LN229, was obtained from the American Type Culture Collection (ATCC, Manassas, VA, USA). Normal fibroblast cell lines TIG3 and WI-38, TM31 (low grade glioma) were obtained from the RIKEN Bioresource Research Center (Tsukuba, Japan). Onda10 and KINGS1 (low grade glioma) cell lines were obtained from the Japanese Collection of Research Bioresources (Ibaraki, Japan). F3 is utilized as a neural stem cell line{Kim, 2004 #1412}{Natsume, 2013 #1009}. All cells were maintained in DMEM medium (Wako, Osaka, Japan) containing 5% fetal bovine serum (FBS, Thermo Fisher Scientific, Waltham, MA, USA) and 1% penicillin-streptomycin (Wako). […]
as §4, §5

KINGS1 = test: Cell proliferation assay (Cell Counting Kit 8); type: cell-based; details: Homo sapiens, KINGS-1, 96 h; KINGS1 (grade III glioma), 4 days; read-out: Growth inhibitory IC50 (GI50)
Text: as §1, §6, §7, §4, §5

Onda10 = test: Cell proliferation assay (Cell Counting Kit 8); type: cell-based; details: 96 h; Onda10 (grade III glioma), 4 days; read-out: Growth inhibitory IC50 (GI50)
Text: as §1, §6, §7, §4, §5

LN229 = test: Cell proliferation assay (Cell Counting Kit 8); type: cell-based; details: Homo sapiens, LN-229, 96 h; LN229 (GBM cell line), 4 days; read-out: Growth inhibitory IC50 (GI50)
Text: as §1, §6, §7, §4, §5

WI38 = test: Cell proliferation assay (Cell Counting Kit 8); type: cell-based; details: Homo sapiens, WI-38, 96 h; WI38 (normal fibroblast), 4 days; read-out: Growth inhibitory IC50 (GI50)
Text: as §1, §6, §7, §4, §5

F3 = test: Cell proliferation assay (Cell Counting Kit 8); type: cell-based; details: 96 h; F3 (normal neural stem cell line), 4 days; read-out: Growth inhibitory IC50 (GI50)
Text: as §1, §6, §7, §4, §5

TM31 = test: Cell proliferation assay (Cell Counting Kit 8); type: cell-based; details: 96 h; TM31 (grade III glioma), 4 days; read-out: Growth inhibitory IC50 (GI50)
Text: as §1, §6, §7, §4, §5

MAO-B = molecular target: T2, MAO-B (Homo sapiens, UniProt P27338); details: cited from earlier work
T2 sequence (P27338 1-520): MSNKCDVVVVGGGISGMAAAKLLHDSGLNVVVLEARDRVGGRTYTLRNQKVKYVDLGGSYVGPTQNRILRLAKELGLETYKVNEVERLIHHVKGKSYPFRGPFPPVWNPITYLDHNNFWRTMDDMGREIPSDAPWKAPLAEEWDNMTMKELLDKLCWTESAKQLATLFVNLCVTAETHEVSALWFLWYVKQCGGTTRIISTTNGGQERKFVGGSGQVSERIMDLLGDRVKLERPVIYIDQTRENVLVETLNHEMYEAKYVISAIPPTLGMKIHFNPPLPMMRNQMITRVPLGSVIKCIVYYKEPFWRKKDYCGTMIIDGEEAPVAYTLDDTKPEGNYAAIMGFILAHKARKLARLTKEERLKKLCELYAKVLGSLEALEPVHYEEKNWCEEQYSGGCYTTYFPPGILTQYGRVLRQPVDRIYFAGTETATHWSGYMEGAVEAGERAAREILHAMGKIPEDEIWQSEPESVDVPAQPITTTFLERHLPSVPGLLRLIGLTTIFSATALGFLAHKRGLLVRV

MAO-A = molecular target: T3, MAO-A (Homo sapiens, UniProt P21397); details: cited from earlier work
T3 sequence (P21397 1-527): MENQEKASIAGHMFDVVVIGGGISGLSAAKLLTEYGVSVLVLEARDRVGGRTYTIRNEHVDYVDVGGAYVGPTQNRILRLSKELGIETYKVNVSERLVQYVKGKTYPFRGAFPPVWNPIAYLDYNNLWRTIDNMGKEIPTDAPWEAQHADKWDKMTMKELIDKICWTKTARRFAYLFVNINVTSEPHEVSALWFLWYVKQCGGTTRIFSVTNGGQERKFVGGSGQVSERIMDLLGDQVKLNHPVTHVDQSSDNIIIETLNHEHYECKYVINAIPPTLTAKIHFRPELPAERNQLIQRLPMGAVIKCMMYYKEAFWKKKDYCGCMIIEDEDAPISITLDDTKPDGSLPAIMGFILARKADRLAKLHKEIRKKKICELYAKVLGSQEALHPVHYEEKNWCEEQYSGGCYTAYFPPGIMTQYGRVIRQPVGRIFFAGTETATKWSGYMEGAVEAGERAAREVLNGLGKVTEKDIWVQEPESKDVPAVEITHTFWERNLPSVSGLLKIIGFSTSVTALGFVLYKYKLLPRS

Row | SMILES | IC50 (GSC316) [µM] | IC50 (GSC222) [µM] | IC50 (GSC1228) [µM] | Ki (LSD2) [µM] | IC50 (TIG3) [µM] | IC50 (KINGS1) [µM] | IC50 (Onda10) [µM] | IC50 (LN229) [µM] | IC50 (WI38) [µM] | IC50 (F3) [µM] | IC50 (TM31) [µM] | Ki (MAO-B) [µM] | Ki (MAO-A) [µM]
1 | NC1CC1c1cc(F)cc(F)c1OCc1ccccc1 (stereo not drawn) [S2101] | > 40 | > 40 | > 40 | > 250 | > 40 | 19 | 25 | 12 | > 40 | 26 | 6.9 | – | –
2 | CN1CCN(C(=O)CNC2CC2c2cc(F)cc(F)c2OCc2ccccc2)CC1 (stereo not drawn) [S2157] | > 40 | > 40 | 19.7 | > 250 | 33.3 | > 40 | > 40 | > 40 | > 40 | 36.5 | 27 | > 250 | > 250
